Assay results: article PMC3392217, “BmK-YA, an Enkephalin-Like Peptide in Scorpion Venom” (PLoS ONE, 2012)
No end group written: not given here.

Experiments:
Type in all cases: cell-based
[1] = molecular target: T1, human opioid receptor μ (Homo sapiens, UniProt P35372); test: Ca2+ response monitored by FLIPR, μ-expressing cells; settings: μ-expressing HEK293T cells
T1 construct: expressed in transfected cells
Experimental: (§1) The assay was performed as reported earlier.
(§2) Potency is determined by EC50.

[2] = molecular target: T2, human opioid receptor κ (Homo sapiens, UniProt P41145); test: Ca2+ response monitored by FLIPR, κ-expressing cells; settings: κ-expressing HEK293T cells
T2 construct: expressed in transfected cells
T2 sequence (P41145 whole entry): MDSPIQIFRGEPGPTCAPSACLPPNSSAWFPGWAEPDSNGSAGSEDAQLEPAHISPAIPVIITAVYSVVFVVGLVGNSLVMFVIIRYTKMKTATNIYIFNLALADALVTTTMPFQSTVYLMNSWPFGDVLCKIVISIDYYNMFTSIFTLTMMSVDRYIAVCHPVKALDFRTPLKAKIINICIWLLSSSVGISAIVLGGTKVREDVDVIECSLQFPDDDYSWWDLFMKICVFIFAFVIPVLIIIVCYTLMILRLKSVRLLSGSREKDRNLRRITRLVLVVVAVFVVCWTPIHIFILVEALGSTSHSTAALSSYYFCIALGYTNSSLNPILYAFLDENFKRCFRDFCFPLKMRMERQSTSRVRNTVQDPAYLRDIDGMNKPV
Experimental: as §1, §2

[3] = molecular target: T3, human opioid receptor δ (Homo sapiens, UniProt P41143); test: Ca2+ response monitored by FLIPR, δ-expressing cells
T3 construct: expressed in transfected cells
T3 sequence (P41143 whole entry): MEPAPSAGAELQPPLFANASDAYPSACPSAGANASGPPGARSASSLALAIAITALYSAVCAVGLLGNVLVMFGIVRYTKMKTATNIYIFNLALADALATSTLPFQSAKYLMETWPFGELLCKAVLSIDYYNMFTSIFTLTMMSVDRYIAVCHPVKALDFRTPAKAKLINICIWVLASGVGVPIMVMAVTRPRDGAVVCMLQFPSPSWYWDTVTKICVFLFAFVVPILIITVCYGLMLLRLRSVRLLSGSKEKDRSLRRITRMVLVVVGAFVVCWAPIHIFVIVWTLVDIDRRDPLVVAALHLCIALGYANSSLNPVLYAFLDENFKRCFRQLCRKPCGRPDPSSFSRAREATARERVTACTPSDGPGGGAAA
Experimental: as §1, §2

[4] = Gqαi3 cotransfected, Fluo-4 AM, FLIPR, mean±SE, n = 3, read-out: EC50 (intracellular Ca2+ mobilization)

T1 sequence (P35372 whole entry): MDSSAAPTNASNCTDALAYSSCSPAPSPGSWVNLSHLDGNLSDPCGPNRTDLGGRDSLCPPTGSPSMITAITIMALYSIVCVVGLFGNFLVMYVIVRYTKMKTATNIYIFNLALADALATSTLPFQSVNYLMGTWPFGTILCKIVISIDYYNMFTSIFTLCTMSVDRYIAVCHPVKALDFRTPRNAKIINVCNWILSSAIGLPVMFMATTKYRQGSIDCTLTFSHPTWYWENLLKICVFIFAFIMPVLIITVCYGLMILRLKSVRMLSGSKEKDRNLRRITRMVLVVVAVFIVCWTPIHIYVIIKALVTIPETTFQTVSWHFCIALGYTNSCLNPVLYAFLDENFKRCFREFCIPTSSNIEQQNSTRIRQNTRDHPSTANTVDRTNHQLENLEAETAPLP

Q: Which “Agonist activity, in words” value ([1]; 1 nM to 50 µM) does the source give for YGGHMNPA [His^4-BmK-YA] here?
A: The value was “no activity was detected”.

Q: What about the “Agonist activity, in words” value ([2]; 1 nM to 50 µM) of the same substance?
A: Its value is “no activity was detected”.

Q: And the “Agonist activity, in words” value ([3]; δ-expressing HEK293T cells, 1 nM to 50 µM)?
A: Its value is “no activity was detected”.

Q: With YGGYMNPA-NH2 [BmK-YA] as the substance, how does the EC50 [1, 4] read?
A: The EC50 was 17 µM.

Q: And the EC50 [2, 4]?
A: Its EC50 is 30 ± 0.5 µM.

Q: What about the “Selectivity to the δ-subtype over κ (times)” value ([3]; δ versus κ, FLIPR EC50) of the same substance?
A: The value was 12 times.

Q: And the “Selectivity to the δ-subtype over μ (times)” value ([3]; δ versus μ, FLIPR EC50)?
A: The value was 6.8 times.

Q: What about the EC50 ([3]; δ-expressing HEK293T cells, Gqαi3 cotransfected, Fluo-4 AM, FLIPR, mean±SE, n = 3, read-out: EC50 (intracellular Ca2+ mobilization)) of the same substance?
A: The EC50 was 2500 nM.
